# What was measured:
# Test in all cases: Exemplary Kinase Panel Analysis
# Type in all cases: biochemical
# Conditions in all cases: 10 concentrations, 3-fold serial dilutions starting at 5 μM, duplicate
# ITK = target: T1, ITK (Homo sapiens, UniProt Q08881)
# T1 sequence (Q08881 1-620): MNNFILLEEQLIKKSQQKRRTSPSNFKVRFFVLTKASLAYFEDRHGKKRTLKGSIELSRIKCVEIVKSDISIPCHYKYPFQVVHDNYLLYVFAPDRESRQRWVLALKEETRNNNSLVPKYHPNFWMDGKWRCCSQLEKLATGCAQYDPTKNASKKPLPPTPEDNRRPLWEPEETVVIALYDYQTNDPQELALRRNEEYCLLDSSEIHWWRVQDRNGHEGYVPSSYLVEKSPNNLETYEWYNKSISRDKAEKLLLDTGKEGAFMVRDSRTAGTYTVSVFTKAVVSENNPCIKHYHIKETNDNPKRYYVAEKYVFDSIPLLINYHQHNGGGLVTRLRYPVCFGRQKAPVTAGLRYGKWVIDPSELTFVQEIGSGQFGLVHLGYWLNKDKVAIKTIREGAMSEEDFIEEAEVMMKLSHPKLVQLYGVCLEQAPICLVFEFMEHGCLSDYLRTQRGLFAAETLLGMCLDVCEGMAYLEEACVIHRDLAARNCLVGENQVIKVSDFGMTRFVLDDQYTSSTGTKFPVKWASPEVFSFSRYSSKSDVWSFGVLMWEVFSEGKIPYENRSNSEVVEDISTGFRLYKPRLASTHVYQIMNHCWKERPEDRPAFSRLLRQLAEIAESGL
# EGFR (L861Q) = EGFR (L861Q) (Homo sapiens, UniProt P00533, L861Q)
# Sequence of EGFR (L861Q) (P00533 25-1210 L861Q): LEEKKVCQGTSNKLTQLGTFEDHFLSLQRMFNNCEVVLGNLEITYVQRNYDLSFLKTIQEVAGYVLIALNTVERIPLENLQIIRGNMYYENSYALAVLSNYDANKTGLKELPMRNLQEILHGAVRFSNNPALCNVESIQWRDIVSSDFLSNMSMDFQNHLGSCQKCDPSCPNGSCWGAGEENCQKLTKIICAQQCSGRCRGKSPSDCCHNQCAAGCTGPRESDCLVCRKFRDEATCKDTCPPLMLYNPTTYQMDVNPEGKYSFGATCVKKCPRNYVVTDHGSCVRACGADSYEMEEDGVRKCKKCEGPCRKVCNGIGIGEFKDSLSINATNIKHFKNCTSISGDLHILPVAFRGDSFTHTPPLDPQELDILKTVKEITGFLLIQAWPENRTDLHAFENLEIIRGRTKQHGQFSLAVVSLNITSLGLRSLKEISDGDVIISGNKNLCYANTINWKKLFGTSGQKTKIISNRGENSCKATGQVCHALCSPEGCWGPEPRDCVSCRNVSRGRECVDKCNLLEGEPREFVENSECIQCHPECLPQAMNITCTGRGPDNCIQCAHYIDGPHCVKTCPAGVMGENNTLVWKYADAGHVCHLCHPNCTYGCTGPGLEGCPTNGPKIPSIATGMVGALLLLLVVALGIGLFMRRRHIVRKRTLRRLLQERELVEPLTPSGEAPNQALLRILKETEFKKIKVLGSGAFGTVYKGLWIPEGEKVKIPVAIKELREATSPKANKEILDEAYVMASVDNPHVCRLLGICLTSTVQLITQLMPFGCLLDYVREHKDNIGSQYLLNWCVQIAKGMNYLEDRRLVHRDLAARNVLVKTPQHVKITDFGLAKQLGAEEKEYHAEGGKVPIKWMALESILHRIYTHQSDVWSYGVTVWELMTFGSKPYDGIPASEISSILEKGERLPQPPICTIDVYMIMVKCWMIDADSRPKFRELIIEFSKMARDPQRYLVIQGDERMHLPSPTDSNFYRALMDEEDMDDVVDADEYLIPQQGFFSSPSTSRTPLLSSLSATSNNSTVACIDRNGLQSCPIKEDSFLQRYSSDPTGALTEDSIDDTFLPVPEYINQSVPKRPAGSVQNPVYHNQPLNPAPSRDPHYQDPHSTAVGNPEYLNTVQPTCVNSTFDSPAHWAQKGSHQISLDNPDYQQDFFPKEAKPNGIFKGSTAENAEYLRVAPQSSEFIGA
# EGFR (d746-750) = EGFR (d746-750) (Homo sapiens, UniProt P00533, DEL746-750)
# Sequence of EGFR (d746-750) (P00533 with tags, fused parts or gaps DEL746-750 limits assumed): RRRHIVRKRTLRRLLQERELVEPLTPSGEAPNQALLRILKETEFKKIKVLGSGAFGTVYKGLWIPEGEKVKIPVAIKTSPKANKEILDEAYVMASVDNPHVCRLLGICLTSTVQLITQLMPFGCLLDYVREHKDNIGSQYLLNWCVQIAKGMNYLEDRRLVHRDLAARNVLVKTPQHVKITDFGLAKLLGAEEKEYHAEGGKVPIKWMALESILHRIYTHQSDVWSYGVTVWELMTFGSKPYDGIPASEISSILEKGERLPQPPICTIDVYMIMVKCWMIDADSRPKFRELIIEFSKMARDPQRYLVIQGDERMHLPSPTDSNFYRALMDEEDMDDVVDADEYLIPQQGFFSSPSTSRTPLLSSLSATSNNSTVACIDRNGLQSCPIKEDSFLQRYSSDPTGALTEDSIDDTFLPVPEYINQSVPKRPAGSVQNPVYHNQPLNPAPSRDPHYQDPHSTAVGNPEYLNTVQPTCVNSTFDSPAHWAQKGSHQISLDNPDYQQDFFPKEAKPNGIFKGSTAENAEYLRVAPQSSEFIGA
# EGFR = EGFR (Homo sapiens, UniProt P00533)
# Sequence of EGFR (P00533 25-1210): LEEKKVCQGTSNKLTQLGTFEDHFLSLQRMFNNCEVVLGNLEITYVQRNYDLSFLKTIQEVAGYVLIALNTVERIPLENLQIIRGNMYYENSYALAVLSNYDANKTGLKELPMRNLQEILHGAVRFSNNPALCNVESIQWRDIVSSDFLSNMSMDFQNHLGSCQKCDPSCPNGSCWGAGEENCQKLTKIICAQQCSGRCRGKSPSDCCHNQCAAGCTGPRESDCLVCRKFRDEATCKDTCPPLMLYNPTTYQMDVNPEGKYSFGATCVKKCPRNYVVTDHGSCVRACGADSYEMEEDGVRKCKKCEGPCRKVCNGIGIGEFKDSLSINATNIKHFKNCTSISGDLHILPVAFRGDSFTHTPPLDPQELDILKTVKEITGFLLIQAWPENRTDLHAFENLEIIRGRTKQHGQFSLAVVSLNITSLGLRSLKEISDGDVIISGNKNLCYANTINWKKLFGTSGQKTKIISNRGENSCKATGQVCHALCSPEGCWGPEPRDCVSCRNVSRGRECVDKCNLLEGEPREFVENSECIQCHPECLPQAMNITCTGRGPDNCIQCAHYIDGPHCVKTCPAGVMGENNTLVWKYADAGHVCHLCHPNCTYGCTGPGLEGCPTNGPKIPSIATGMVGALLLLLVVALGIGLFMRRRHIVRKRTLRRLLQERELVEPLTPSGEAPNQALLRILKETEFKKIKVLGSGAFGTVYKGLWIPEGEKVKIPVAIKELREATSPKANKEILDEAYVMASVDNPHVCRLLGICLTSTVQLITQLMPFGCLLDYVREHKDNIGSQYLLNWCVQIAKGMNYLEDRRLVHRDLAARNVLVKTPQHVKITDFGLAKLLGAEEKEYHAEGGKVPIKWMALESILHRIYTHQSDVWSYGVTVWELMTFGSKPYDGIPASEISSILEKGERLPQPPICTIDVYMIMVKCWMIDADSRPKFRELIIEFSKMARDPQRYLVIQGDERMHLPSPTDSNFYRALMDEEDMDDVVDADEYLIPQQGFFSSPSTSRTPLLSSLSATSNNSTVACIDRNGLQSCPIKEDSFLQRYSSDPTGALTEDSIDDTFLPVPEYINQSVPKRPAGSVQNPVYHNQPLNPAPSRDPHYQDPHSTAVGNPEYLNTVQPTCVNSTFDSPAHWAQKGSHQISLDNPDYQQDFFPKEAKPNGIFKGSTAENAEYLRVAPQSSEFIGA
# Procedure: Kinase Panel: These compounds were tested against 439 kinases. […]. […] The results are presented in Table 2 below, where empty cells indicate no inhibition or compound activity that could not be fit to an IC50 curve.
SMILES,IC50 (ITK) [nM],IC50 (EGFR (L861Q)) [nM],IC50 (EGFR (d746-750)) [nM],IC50 (EGFR) [nM]
C=CC(=O)Nc1cc(CC(=O)OC)cc(-c2cnc3ccccc3n2)c1 [Compound 2],34.9,,,
C=CC(=O)Nc1cc(NS(C)(=O)=O)cc(-c2cnc3ccccc3n2)c1 [Compound 3],278,,,
"C=CC(=O)Nc1cc(CN2CCNC(=O)C2)cc(-c2cnc3ccccc3n2)c1 [Compound 1b, N-[3-[(3-oxopiperazin-1-yl)methyl]-5-quinoxalin-2-yl-phenyl] prop-2-enamide]",68,2650,2290,2860
C=CC(=O)Nc1cc(CN2CCN(C)C(=O)C2)cc(-c2cnc3ccccc3n2)c1 [Compound 1a],72.1,352,345,370
